In US5010090A, “N-(butenyl substituted) azaheterocyclic carboxylic acids” (Novo Nordisk A/S., priority 1985, dated 1991):
pIC50: −log10 of the molar value.

Tests used:
GABA uptake [1] = experiment: GABA-uptake inhibition in vitro, essentially as described by Fjalland, 3H-GABA as substrate; type: biochemical; settings: two separate experiments, 3-5 concentrations, 3H-GABA substrate (25 mM [sic])
Procedure: GABA-uptake inhibition was measured essentially as described by Fjalland (Acta Pharmacol. et. Toxicol. (1978), 42, 73-76) using 25 mM of 3H-GABA as a substrate. The results obtained appears from Table 4, the obtained values being from two separate experiments using 3-5 different concentrations of test compound.

[2] = system: DMCM induced clonic convulsions; experiment: Inhibition of DMCM induced convulsions in vivo; settings: Mus musculus, ip, 0.5 h; 50% inhibition of DMCM induced clonic convulsions; i.p. 30 min before 15 mg/kg DMCM i.p.; female NMRI mice
Procedure: Inhibition of DMCM induced convulsions was measured on female NMRI mice (20±2 g).
The test compounds were injected intraperitoneally 30 min. before an intraperitoneal injection of 15 mg/kg of DMCM.

GABA uptake [3] = settings: literature; cited from earlier work

Compound	pIC50 (GABA uptake [1])	ED50 [2]	inhibition of GABA uptake (GABA uptake [3])
Cc1ccsc1C(=CCCN1CCCC(C(=O)O)C1)c1cccs1 (stereo not shown) [Compound 1, N-(4-(3-Methylthien-2-yl)-4-(thien-2-yl)but-3-enyl)nipecotic acid]	7.04	–	–
Cn1cccc1C(=CCCN1CCCC(C(=O)O)C1)c1cccn1C (stereo not shown) [Compound 2, N-(4,4-Bis(N-methylpyrrol-2-yl)but-3-enyl)nipecotic acid]	7.28	–	–
Cc1ccsc1C(=CCCN1CCC=C(C(=O)O)C1)c1cccs1 [Compound 3, N-(4-(3-Methylthien-2yl)-4-(thien-2-yl)but-3-enyl)guvacine]	6.87	–	–
Cc1ccsc1C(=CCCN1CCC[C@@H](C(=O)O)C1)c1sccc1C [Compound 6, R-N-(4,4-bis(3-methylthien-2-yl)but-3-enyl)-nipecotic acid]	7.13	1.2 mg/kg	–
Cc1ccsc1C(=CCCN1CCC(CC(=O)O)C1)c1sccc1C (stereo not drawn) [Compound 7, N-(4,4-Bis(3-methylthien-2-yl)but-3-enyl)-β-homoproline]	7.16	–	–
CCOC(=O)[C@@H]1CCCN(CCC=C(c2sccc2C)c2sccc2C)C1 [Example 23, R-N-(4,4-bis(3-methylthien-2-yl)but-3-enyl)-nipecotic acid ethyl ester]	–	2.5 mg/kg	–
O=C(O)C1=CCCN(CCC=C(c2ccccc2)c2ccccc2)C1 [SK&F 100330A, N-(4,4-diphenyl-3-butenyl)guvacine]	–	–	active inhibitors of GABA uptake
O=C(O)CC1CCN(CCC=C(c2ccccc2)c2ccccc2)C1 (stereo not drawn) [SK&F 100561, N-(4,4-diphenyl-3-butenyl)-β-homoproline]	–	–	active inhibitors of GABA uptake

More lines, in order of rising pIC50 (GABA uptake [1]), values ahead:

pIC50 (GABA uptake [1])	Compound	ED50 [2]	inhibition of GABA uptake (GABA uptake [3])
6.33	O=C(O)C1CCCN(CCC=C(c2ccccc2)c2cccs2)C1 (stereo not shown) [Compound 9, N-(4-phenyl-4-(2-thienyl)-3-butenyl)nipecotic acid, reference compound]	–	active inhibitors of GABA uptake
6.45	O=C(O)C1CCCN(CCC=C(c2ccccc2)c2ccccc2)C1 (stereo not shown) [Compound 10, N-(4,4-diphenyl-3-butenyl)nipecotic acid, reference compound]	–	active inhibitors of GABA uptake
7.02	O=C(O)C1CCCN(CCC=C(c2sccc2Br)c2sccc2Br)C1 (stereo not shown) [Compound 8, N-(4,4-Bis(3-bromothien-2-yl)but-3-enyl)nipecotic acid]	–	–
7.06	Cc1ccsc1C(=CCCN1CCCC(C(=O)O)C1)c1sccc1C (stereo not shown) [Compound 5, N-(4,4-Bis(3-methylthien-2-yl)but-3-enyl)nipecotic acid]	–	–
7.14	Cc1ccsc1C(=CCCN1CCC(CC(=O)O)C1)c1cccs1 (stereo not shown) [Compound 4]	–	–
